The structures appear in SMILES notation. pIC50: −log10 of the molar value.

Data set [1] concerns A375 melanoma cells (B-Raf V600E). Briefly: A375 cell growth inhibition (ATPlite). It is filed as cell-based. The conditions noted are these: Homo sapiens, A-375, 72 h; A375, 3 days incubation. The essentials: (§1)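 ATPlite luminescence, taken as a cell-number measure, gave IC50 values after a 3-day 37° C, 5% CO2 incubation. Compounds were tested as 8-point threefold titrations, highest final concentration 10 μM, added to cells seeded the day before.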
Background: ATP-based viability assays read luminescence as a measure of living cells.

A further data set addresses CYP3A4(BFC) (Homo sapiens, UniProt P08684). Briefly: CYP3A4(BFC) inhibition (fluorescent substrate). Type of data set: in vitro ADME. Particulars: read-out: Cyp IC50 3A4(BFC). On the procedure: (§2) CYP (Cytochrome P450) enzymes are the major drug metabolizing enzymes present in the liver. The inhibition of CYP enzyme activity (IC50) for each of CYP1A2, CYP2C19, CYP2C9, CYP2D6, CYP3A4(BFC) and CYP3A4(BQ) is determined for compounds, where inhibition of metabolism of a known substrate leads to a decrease in the fluorescence of the metabolized product. The fluorescence of the product is monitored as a function of compound concentration. Compounds are dissolved in dimethyl sulfoxide to a concentration of 100 mM. These are diluted 1 μL into 82 μL of acetonitrile. […] These are then serially diluted 1:1 (160 μL to 160 μL co-factor mix) for a total of 10 points. A 10 μL aliquot of this final mixture is dispensed into 384 well assay plates and incubated for 10 minutes at 37° C. […] Assay plates are incubated at 37° C. […] The signal versus compound concentration is used to determine the IC50. The enzymes and substrates for this assay are obtained from BD Biosciences.

Another data set concerns the target CYP3A4(BQ) (Homo sapiens, UniProt P08684). Briefly: CYP3A4(BQ) inhibition (fluorescent substrate). Type of data set: in vitro ADME. The conditions noted are these: read-out: Cyp IC50 3A4(BQ). As for the experimental part: as §2
Data set [2] concerns SW620 colon adenocarcinoma cells (wild-type B-RAF). Nature of the data set: SW620 cell growth inhibition (ATPlite). It is filed as cell-based. The conditions noted are these: Homo sapiens, SW-620, 72 h; SW620, 3 days incubation. The method in brief: as §1

CYP3A4(BFC), sequence (P08684 whole entry): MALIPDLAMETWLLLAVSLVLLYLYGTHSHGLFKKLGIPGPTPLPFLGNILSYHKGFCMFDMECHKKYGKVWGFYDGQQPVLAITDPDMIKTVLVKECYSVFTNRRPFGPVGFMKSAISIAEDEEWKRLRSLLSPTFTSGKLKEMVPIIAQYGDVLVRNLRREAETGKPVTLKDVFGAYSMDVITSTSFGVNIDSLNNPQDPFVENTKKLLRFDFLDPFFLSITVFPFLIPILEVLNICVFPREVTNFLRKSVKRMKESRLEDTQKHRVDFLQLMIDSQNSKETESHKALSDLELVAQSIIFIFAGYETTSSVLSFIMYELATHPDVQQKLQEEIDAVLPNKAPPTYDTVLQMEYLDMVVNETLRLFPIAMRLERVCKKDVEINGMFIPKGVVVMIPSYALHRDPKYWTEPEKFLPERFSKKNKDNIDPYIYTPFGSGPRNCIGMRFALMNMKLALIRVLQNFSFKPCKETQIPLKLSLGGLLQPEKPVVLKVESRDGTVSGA
CYP3A4(BQ), sequence (P08684 whole entry): as above

By pIC50 is commonly meant the negative decadic logarithm of the IC50, by convention in mol/L. On to `O=C(c1c(F)ccc(NS(=O)(=O)c2c(F)cccc2F)c1F)c1c[nH]c2ncc(Cl)cc12` [P-2003, N-[3-(5-Chloro-1H-pyrrolo[2,3-b]pyridine-3-carbonyl)-2,4-difluoro-phenyl]-2,6-difluoro-benzenesulfonamide], for which the pIC50 was over 6.00 in data set [1], under 5.00 on CYP3A4(BFC) and under 5.00 on CYP3A4(BQ).
Take `COc1ccnc2[nH]cc(C(=O)c3c(F)ccc(NS(=O)(=O)c4ccccc4F)c3F)c12` [P-2021, N-[2,4-Difluoro-3-(4-methoxy-1H-pyrrolo[2,3-b]pyridine-3-carbonyl)-phenyl]-2-fluoro-benzenesulfonamide]: the pIC50 in data set [2] was under 5.00; in data set [1] it was over 6.00; at CYP3A4(BFC), under 5.00; at CYP3A4(BQ), under 5.00.
In the case of `COc1ccnc2[nH]cc(C(=O)c3c(F)ccc(NS(=O)(=O)c4cccc(F)c4)c3F)c12` [P-2023, N-[2,4-Difluoro-3-(4-methoxy-1H-pyrrolo[2,3-b]pyridine-3-carbonyl)-phenyl]-3-fluoro-benzenesulfonamide], the pIC50 is over 6.00 in data set [1], 5.00 to 5.30 on CYP3A4(BFC) and over 5.30 at CYP3A4(BQ).
Regarding `Cc1cnc2[nH]cc(C(=O)c3c(F)ccc(NS(=O)(=O)c4c(F)cccc4F)c3F)c2c1` [P-2024, N-[2,4-Difluoro-3-(5-methyl-1H-pyrrolo[2,3-b]pyridine-3-carbonyl)-phenyl]-2,6-difluoro-benzenesulfonamide], the results for the pIC50 (in data set [1]; at CYP3A4(BFC); at CYP3A4(BQ)) were over 5.30, under 5.00 and under 5.00, respectively.
`COc1ncc(-c2cnc3[nH]cc(C(=O)c4c(F)ccc(NS(=O)(=O)c5ccccc5F)c4F)c3c2)cn1` [P-2041, N-{2,4-Difluoro-3-[5-(2-methoxy-pyrimidin-5-yl)-1H-pyrrolo[2,3-b]pyridine-3-carbonyl]-phenyl}-2-fluoro-benzenesulfonamide]: the negative-log IC50 (pIC50) was under 5.00 in data set [2], over 6.00 in data set [1], under 5.00 at CYP3A4(BFC) and under 5.00 at CYP3A4(BQ).
Consider `COc1ncc(-c2cnc3[nH]cc(C(=O)c4c(F)ccc(NS(=O)(=O)c5cc(F)ccc5F)c4F)c3c2)cn1` [P-2042, N-{2,4-Difluoro-3-[5-(2-methoxy-pyrimidin-5-yl)-1H-pyrrolo[2,3-b]pyridine-3-carbonyl]-phenyl}-2,5-difluoro-benzenesulfonamide], for which the pIC50 was under 5.00 in data set [2], over 6.00 in data set [1], under 5.00 on CYP3A4(BFC) and under 5.00 at CYP3A4(BQ).
Regarding `COc1ncc(-c2cnc3[nH]cc(C(=O)c4c(F)ccc(NS(=O)(=O)c5c(F)cccc5F)c4F)c3c2)cn1` [P-2043, N-{2,4-Difluoro-3-[5-(2-methoxy-pyrimidin-5-yl)-1H-pyrrolo[2,3-b]pyridine-3-carbonyl]-phenyl}-2,6-difluoro-benzenesulfonamide], the pIC50 is under 5.00 in data set [2], over 5.30 in data set [1], under 5.00 on CYP3A4(BFC) and under 5.00 at CYP3A4(BQ).
On to `COc1ncc(-c2cnc3[nH]cc(C(=O)c4c(F)ccc(NS(=O)(=O)c5cccc(F)c5)c4F)c3c2)cn1` [P-2045, N-{2,4-Difluoro-3-[5-(2-methoxy-pyrimidin-5-yl)-1H-pyrrolo[2,3-b]pyridine-3-carbonyl]-phenyl}-3-fluoro-benzenesulfonamide], for which the pIC50 in data set [2] is under 5.00; in data set [1] it was over 5.30; at CYP3A4(BFC), under 5.00; on CYP3A4(BQ), under 5.00.
Turning to `N#Cc1cnc2[nH]cc(C(=O)c3cccc(NS(=O)(=O)c4c(F)cccc4F)c3F)c2c1` [P-2054, N-[3-(5-Cyano-1H-pyrrolo[2,3-b]pyridine-3-carbonyl)-2-fluoro-phenyl]-2,6-difluoro-benzenesulfonamide], the pIC50 in data set [2] is under 5.00; in data set [1], over 5.30; at CYP3A4(BFC), under 5.00; at CYP3A4(BQ), under 5.00.
As to `Cc1cnc2[nH]cc(C(=O)c3c(F)ccc(NS(=O)(=O)c4cccnc4)c3F)c2c1` [P-2069, Pyridine-3-sulfonic acid [2,4-difluoro-3-(5-methyl-1H-pyrrolo[2,3-b]pyridine-3-carbonyl)-phenyl]-amide], the negative logarithm of the IC50 (pIC50) (in data set [1]; at CYP3A4(BFC); on CYP3A4(BQ)) was over 5.30 in each case.
`CCCS(=O)(=O)Nc1ccc(F)c(C(=O)c2c[nH]c3ncc(-c4ccc(C(=O)NCC)nc4)cc23)c1F` [P-2151, 5-{3-[2,6-Difluoro-3-(propane-1-sulfonylamino)-benzoyl]-1H-pyrrolo[2,3-b]pyridin-5-yl}-pyridine-2-carboxylic acid ethylamide]: the results for the pIC50 (in data set [1]; on CYP3A4(BFC); on CYP3A4(BQ)) were over 6.00, under 5.00 and under 5.00, respectively.
As for `CCCS(=O)(=O)Nc1ccc(F)c(C(=O)c2c[nH]c3ncc(-c4ccc(C(=O)NC)nc4)cc23)c1F` [P-2180, 5-{3-[2,6-Difluoro-3-(propane-1-sulfonylamino)-benzoyl]-1H-pyrrolo[2,3-b]pyridin-5-yl}-pyridine-2-carboxylic acid methylamide], the pIC50 in data set [1] was over 6.00; at CYP3A4(BFC) it was under 5.00; on CYP3A4(BQ), under 5.00.
Consider `CCCS(=O)(=O)Nc1ccc(F)c(C(=O)c2c[nH]c3ncc(-c4ccc(C(=O)NC5CC5)nc4)cc23)c1F` [P-2181, 5-{3-[2,6-Difluoro-3-(propane-1-sulfonylamino)-benzoyl]-1H-pyrrolo[2,3-b]pyridin-5-yl}-pyridine-2-carboxylic acid cyclopropylamide], for which the values for the pIC50 (in data set [1]; at CYP3A4(BFC); on CYP3A4(BQ)) were over 6.00, under 5.00 and under 5.00, respectively.
As for `CCCS(=O)(=O)Nc1ccc(F)c(C(=O)c2c[nH]c3ncc(-c4ccc(OC)nc4OC)cc23)c1F` [P-2184, Propane-1-sulfonic acid {3-[5-(2,6-dimethoxy-pyridin-3-yl)-1H-pyrrolo[2,3-b]pyridine-3-carbonyl]-2,4-difluoro-phenyl}-amide], the results for the negative-log IC50 (pIC50) (in data set [1]; on CYP3A4(BFC); on CYP3A4(BQ)) were over 6.00, under 5.00 and under 5.00, respectively.
For the compound `CCCS(=O)(=O)Nc1ccc(F)c(C(=O)c2c[nH]c3ncc(-c4ccc(SC)nc4)cc23)c1F` [P-2187, Propane-1-sulfonic acid {2,4-difluoro-3-[5-(6-methylsulfanyl-pyridin-3-yl)-1H-pyrrolo[2,3-b]pyridine-3-carbonyl]-phenyl}-amide], the pIC50 in data set [2] was under 5.00; in data set [1] it was over 6.00; at CYP3A4(BFC) it was under 5.00; on CYP3A4(BQ) it was under 5.00.
`CCCS(=O)(=O)Nc1ccc(F)c(C(=O)c2c[nH]c3ncc(-c4cncc(S(C)(=O)=O)c4)cc23)c1F` [P-2188, Propane-1-sulfonic acid {2,4-difluoro-3-[5-(5-methanesulfonyl-pyridin-3-yl)-1H-pyrrolo[2,3-b]pyridine-3-carbonyl]-phenyl}-amide]: the pIC50 in data set [1] is over 5.00; at CYP3A4(BFC) it was under 5.00; at CYP3A4(BQ), under 5.00.
For `CCCS(=O)(=O)Nc1ccc(F)c(C(=O)c2c[nH]c3ncc(-c4cnn(Cc5ccccc5)c4)cc23)c1F` [P-2190, Propane-1-sulfonic acid {3-[5-(1-benzyl-1H-pyrazol-4-yl)-1H-pyrrolo[2,3-b]pyridine-3-carbonyl]-2,4-difluoro-phenyl}-amide], the pIC50 is over 5.00 in data set [2], over 6.00 in data set [1], under 5.00 on CYP3A4(BFC) and under 5.00 at CYP3A4(BQ).
Take `CCCS(=O)(=O)Nc1ccc(F)c(C(=O)c2c[nH]c3ncc(-c4ccc(S(N)(=O)=O)cc4)cc23)c1F` [P-2194, 4-{3-[2,6-Difluoro-3-(propane-1-sulfonylamino)-benzoyl]-1H-pyrrolo[2,3-b]pyridin-5-yl}-benzenesulfonamide]: the pIC50 in data set [1] was over 5.30; on CYP3A4(BFC), under 5.00; on CYP3A4(BQ), under 5.00.
Regarding `CCCS(=O)(=O)Nc1ccc(F)c(C(=O)c2c[nH]c3ncc(-c4cnc(N5CCOCC5)nc4)cc23)c1F` [P-2197, Propane-1-sulfonic acid {2,4-difluoro-3-[5-(2-morpholin-4-yl-pyrimidin-5-yl)-1H-pyrrolo[2,3-b]pyridine-3-carbonyl]-phenyl}-amide], the negative logarithm of the IC50 (pIC50) was over 6.00 in data set [1], under 5.00 at CYP3A4(BFC) and under 5.00 on CYP3A4(BQ).
For `CCCS(=O)(=O)Nc1ccc(F)c(C(=O)c2c[nH]c3ncc(-c4cnc(OC)nc4OC)cc23)c1F` [P-2199, Propane-1-sulfonic acid {3-[5-(2,4-dimethoxy-pyrimidin-5-yl)-1H-pyrrolo[2,3-b]pyridine-3-carbonyl]-2,4-difluoro-phenyl}-amide], the pIC50 was over 5.30 in data set [1], under 5.00 on CYP3A4(BFC) and under 5.00 at CYP3A4(BQ).
For the compound `CCCS(=O)(=O)Nc1cccc(C(=O)c2c[nH]c3ncc(-c4cnc(N(C)C)nc4)cc23)c1F` [P-2408, Propane-1-sulfonic acid {3-[5-(2-dimethylamino-pyrimidin-5-yl)-1H-pyrrolo[2,3-b]pyridine-3-carbonyl]-2-fluoro-phenyl}-amide], the values for the pIC50 (in data set [1]; at CYP3A4(BFC); at CYP3A4(BQ)) were over 7.00, under 5.00 and under 5.00, respectively.
